test system: hResistin; test: Ability to inhibit TNF-α secretion by hResistin (THP-1, ELISA); type: cell-based; settings: THP-1 human monocyte cell line; TNF-α secretion by hResistin; concentration 5 uM
Description: Using THP-1 (human monocyte) cell line and ELISA system, the abilities to inhibit TNF-α secretion by hResistin (IC50) were evaluated for the compounds prepared in the above examples. The compounds target hResistin, and the abilities of the compounds to inhibit TNF-α secretion by human recombinant Resistin in human monocyte (THP-1) were evaluated. The abilities to inhibit TNF-α secretion were assessed by ELISA quantifying the amount of antibody with the enzyme as a marker using an antigen-antibody reaction.
Specifically, the cultured cells were spun down at 1,500 rpm for 2 minutes, the supernatant was removed and then the cells were re-suspended in 10 mL of complete RPMI-1640 medium. After counting the number of cells using Luna™ Automated Cell Counter, cells were plated into 96-well assay plates at 50 μL per well. The cells cultured for 24 hours were treated with the test substances in accordance with the concentration for 1 hour, and then the supernatant was collected and subjected to ELISA assay. In the ELISA assay, the absorbance at 450 nm (OD450 nm) was measured using Flexstation 3. The ability of each test substance to inhibit TNF-α secretion (IC50) and its inhibition at a concentration of 5 uM are shown in Table 1 below.

Row | SMILES | inhibition at 5 µM [%]
1 | CN1CCN(C(c2ccc(Cl)cc2)c2c(-c3ccccc3)[nH]c3ccccc23)CC1 (stereo not drawn) [Example 2, 3-((4-chlorophenyl)(4-methylpiperazin-1-yl)methyl)-2-phenyl-1H-indole] | 70.3

same assay, conditions: THP-1 human monocyte cell line; human recombinant Resistin; ELISA OD450 nm; 1 hour treatment

Row | SMILES | IC50 [nM]
2 | CN1CCN(C(c2ccc(C(F)(F)F)cc2)c2c(-c3ccccc3)[nH]c3ccccc23)CC1 (stereo not drawn) [Example 8, 3-((4-methylpiperazin-1-yl)(4-(trifluoromethyl)phenyl)methyl)-2-phenyl-1H-indole] | 1000
3 | CCN1CCN(C(c2ccc(F)cc2)c2c(-c3ccccc3)[nH]c3ccccc23)CC1 (stereo not drawn) [Example 18, 3-((4-ethylpiperazin-1-yl)(4-fluorophenyl)methyl)-2-phenyl-1H-indole] | 1700
4 | CN1CCN(C(c2cccc(F)c2)c2c(-c3ccc(Cl)cc3)[nH]c3ccccc23)CC1 (stereo not drawn) [Example 14, 2-(4-chlorophenyl)-3-((3-fluorophenyl)(4-methylpiperazin-1-yl)methyl)-1H-indole] | 3200
5 | CN1CCN(C(c2ccc(F)cc2)c2c(-c3ccc(Cl)cc3)[nH]c3ccccc23)CC1 (stereo not drawn) [Example 15, 2-(4-chlorophenyl)-3-((4-fluorophenyl)(4-methylpiperazin-1-yl)methyl)-1H-indole] | 1500
6 | CN1CCN(C(c2cccc(F)c2)c2c(-c3ccccc3)[nH]c3ccccc23)CC1 (stereo not drawn) [Example 7, 3-((3-fluorophenyl)(4-methylpiperazin-1-yl)methyl)-2-phenyl-1H-indole] | 2000
7 | CN1CCN(C(c2ccccc2)c2c(-c3ccccc3)[nH]c3ccccc23)CC1 (stereo not drawn) [Example 6, 3-((4-methylpiperazin-1-yl)(phenyl)methyl)-2-phenyl-1H-indole] | 2800

Continued by falling IC50, values first:

Row | IC50 [nM] | SMILES
8 | 4400 | CN1CCN(C(c2ccc(Cl)cc2)c2c(-c3ccccc3)[nH]c3ccccc23)CC1 (stereo not drawn) [Example 2, 3-((4-chlorophenyl)(4-methylpiperazin-1-yl)methyl)-2-phenyl-1H-indole]
9 | 3500 | Fc1ccc(C(c2c(-c3ccccc3)[nH]c3ccccc23)N2CCOCC2)cc1 (stereo not drawn) [Example 9, 4-((4-fluorophenyl)(2-phenyl-1H-indol-3-yl)methyl)morpholine]
10 | 1700 | CCN1CCN(C(c2ccc(C(F)(F)F)cc2)c2c(-c3ccccc3)[nH]c3ccccc23)CC1 (stereo not drawn) [Example 19, 3-((4-ethylpiperazin-1-yl)(4-(trifluoromethyl)phenyl)methyl)-2-phenyl-1H-indole]
11 | 1700 | CN1CCN(C(c2ccc(F)cc2)c2c(-c3ccccc3)[nH]c3ccccc23)CC1 (stereo not drawn) [Example 10, 3-((4-fluorophenyl)(4-methylpiperazin-1-yl)methyl)-2-phenyl-1H-indole]
12 | 400 | CN1CCN(C(c2ccc(Cl)cc2)c2c(-c3ccc(Cl)cc3)[nH]c3ccccc23)CC1 (stereo not drawn) [Example 12, 2-(4-chlorophenyl)-3-((4-chlorophenyl)(4-methylpiperazin-1-yl)methyl)-1H-indole]
